Broadly, the IC50 is the midpoint of a concentration-inhibition curve. Read a low IC50 as greater potency.

One assay has as its system HaCaT cells. In words: Proliferation assay (HaCaT cells, ATP-lite bioluminescent readout of intracellular ATP). It is filed as cell-based. The conditions noted are these: Homo sapiens, 144 h, absolute IC50 of inhibition of proliferation, 10% FBS, 6 days incubation, mean of 3 experiments. As to the method: Human adult low calcium high temperature (HaCaT) cells are spontaneously transformed human keratinocytes that have the characteristics of basal epidermal keratinocytes (Boukamp et at. J Cell Biol 106:761-771, 1988) This line can be used as in vitro model for highly proliferative epidermis (Ockenfels et at., Arch Dermatol Res 287:301-309, 1995)
HaCaT cells exponentially growing were plated in clear bottom, white walled, 96-well plates at a density of 5000 cells/well in 100 µL Dulbecco's modified Eagle's medium (DMEM) containing 1% fetal bovine serum (FBS), and incubated overnight at 37 °C, 5% CO2. Next day, media in each well was replaced with 50 µL growth medium containing 10% FBS. 50 µL of compounds at two-fold the desired concentration in growth medium containing 2% dimethyl sulfoxide (DMSO) were added to the wells. Six wells were replaced with fresh 100 µL of medium containing 1% FBS and 1% DMSO and were used as a control of no proliferation. Six other wells were replaced with fresh 100 µL of medium containing 10% FBS and 1% DMSO and were used as a control of top proliferation. Each compound concentration was tested in triplicate and ranged from 100 µM to 0.4 µM in half-log serial dilutions. Plates were incubated at 37°C 5% CO2 for 6 consecutive days. […] Results were expressed as a % of inhibition of proliferation in relation to the top and bottom proliferation wells. […]

For assay [1], the system named is premalignant and malignant human cutaneous keratinocytes. The conditions noted are these: cytostasis was followed by apoptosis; cited from earlier work.

`COc1cccc(-c2cc(F)c(Nc3ncccc3C(=O)O)c(F)c2)c1` [2-(3,5-difluoro-3'-methoxybiphenyl-4-ylamino)nicotinic acid] came in with an IC50 with HaCaT cells of 0.58 µM.

For the compound `O=C(O)c1cc(C2CC2)ccc1Nc1cnc(-c2c(F)cccc2F)nc1` [5-cyclopropyl-2-(2-(2,6-difluorophenyl)pyrimidin-5-ylamino)benzoic acid], it took 0.26 µM to reach half-maximal inhibition with HaCaT cells (IC50).

Regarding `CC(O)=C(C#N)C(=O)Nc1ccc(C(F)(F)F)cc1` [Teriflunomide, 2-Butenamide, 2-cyano-3-hydroxy-N-[4-(trifluoromethyl)phenyl]-], the “effect on premalignant and malignant human cutaneous keratinocytes” value in assay [1] is “dose- and time-dependent cytostasis”.

The values above are taken from patent EP2444088A1, “Amino derivatives for the treatment of proliferative skin disorders” (Almirall, S.A., priority 2010, dated 2012).
